The values below come from patent publication EP4664463A1, “COMPUTER-IMPLEMENTED METHOD FOR OLFACTORY PROPERTY PREDICTION” (Givaudan SA, priority 2024, dated 2025).

Values joined by “and” are separate entries in the source; they are usually repeats but may differ in a detail not shown here. Identical values can stand only once. Like-named read-outs stand apart in the source and are kept apart here. Where only a bound is given, the exact number is not on record here.

The target of series [1] is T1, OR56A4 (Homo sapiens, UniProt Q8NGH8, T299N).
T1 construct: expressed in transfected cells; host or cells: HEK293T stably expressing human RTP1S(V227I) and RTP2(L220R)
T1 sequence (Q8NGH8 with tags, fused parts or gaps T299N): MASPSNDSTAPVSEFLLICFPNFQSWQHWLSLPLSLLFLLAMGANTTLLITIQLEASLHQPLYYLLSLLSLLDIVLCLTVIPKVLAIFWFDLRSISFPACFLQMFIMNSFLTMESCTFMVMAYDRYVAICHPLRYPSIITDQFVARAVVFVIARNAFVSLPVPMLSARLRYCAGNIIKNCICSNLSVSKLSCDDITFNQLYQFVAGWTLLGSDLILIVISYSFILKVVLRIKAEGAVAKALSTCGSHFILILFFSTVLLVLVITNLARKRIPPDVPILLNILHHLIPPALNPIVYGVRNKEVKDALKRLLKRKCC
Kind of series: cell-based. It is filed as cell-based. The text has this:
(§1) To create an expression plasmid, an OR coding sequence fused at the end of TM7 to the desired C-terminus sequence was synthesized by a DNA synthesis service provider (BioCat GmbH, Germany) and inserted into pcDNA3.1(+) (Invitrogen, MA, USA) downstream of the CMV promoter sequence (SEQ ID NO: 82) using BamHI and Notl restriction sites. All the synthetic OR nucleotide sequences described below in Examples 1-15 further contained at their N-terminus a nucleotide sequence encoding a signal peptide (mmLucy-FLAG-rho, SeQ ID NOs: 80, 81) and at the C-terminus the bgh terminator sequence (SEQ ID NO: 83). All the OR expression plasmids also contain a Kozak sequence (GCCACC) between the BamHI restriction site and the start codon of the signal peptide. These plasmids thus contain a constitutively expressed OR gene.
(§2) Activation of OR56A4 by acids of different chain length was further tested. […] Replacing the wild-type with the C-terminal sequence of the functional OR51 E1 did reduce activity. However, using the optimized sequence form Examples 1-5 led to a strong signal and much lower detection threshold upon addition of all three acids.

For series [2], the target named is T2, OR56A4 (Homo sapiens, UniProt Q8NGH8).
T2 construct: expressed in transfected cells; host or cells: HEK293T stably expressing human RTP1S(V227I) and RTP2(L220R)
T2 sequence (Q8NGH8 1-313): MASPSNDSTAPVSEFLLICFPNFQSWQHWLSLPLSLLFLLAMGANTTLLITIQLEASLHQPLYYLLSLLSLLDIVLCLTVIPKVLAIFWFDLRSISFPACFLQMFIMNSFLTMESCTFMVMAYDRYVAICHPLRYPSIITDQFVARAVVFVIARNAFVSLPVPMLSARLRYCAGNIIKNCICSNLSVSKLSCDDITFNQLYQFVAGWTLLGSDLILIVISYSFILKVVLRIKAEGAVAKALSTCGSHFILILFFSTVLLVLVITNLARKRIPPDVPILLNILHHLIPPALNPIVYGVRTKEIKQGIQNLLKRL
Briefly: cell-based. It is filed as cell-based.
Excerpt: as §1, §2

The subject of series [3] is OR56A4. Kind of series: cell-based. In kind it is cell-based, human.
Excerpt: as §1, §2

Series [4] relates to library of all class II OR with modified C-terminal domain RNKEVKKAIKRLFKRKCCRRR (SEQ ID NO: 221). Briefly: Screening of the library of all class II OR with single odorants (luciferase). In kind it is cell-based, human. To be noted: full class II OR library (n = 408); maximal non-cytotoxic concentration. How it is done: All human class II OR and all key genetic variants of these OR were synthesized with a sequence coding for an identical modified C-terminal domain […] (SEQ ID NO: 221) in the vector pcDNA3.1(+) to generate a library of all class II OR with an improved C-terminal domain. Class II OR library members with modified C-terminal domains
Parallel transfection experiments were conducted with all these plasmids (n = 408) and cells expressing the different OR were stimulated with one given ligand at a time, tested at the maximal, clearly non-cytotoxic concentration. In total 26 different ligands were tested on the full library of class II receptors.

Series [5] deals with OR4S2. Briefly: cell-based. In kind it is cell-based, human.
Excerpt: as §1

Series [6] concerns the target T3, OR4S2 (Homo sapiens, UniProt Q8NH73).
T3 construct: expressed in transfected cells; host or cells: HEK293T stably expressing human RTP1S(V227I) and RTP2(L220R)
Kind of series: cell-based. It is filed as cell-based.
Excerpt: as §1

Series [7] concerns the target T4, OR4S2 (Homo sapiens, UniProt Q8NH73, A290K).
T4 construct: expressed in transfected cells; host or cells: HEK293T stably expressing human RTP1S(V227I) and RTP2(L220R)
Briefly: cell-based. In kind it is cell-based.
Excerpt: as §1

Series [8] addresses T5, OR7A17 (Homo sapiens, UniProt O14581).
T5 construct: expressed in transfected cells; host or cells: HEK293T cells stably expressing human RTP1S (V227I) and RTP2 (L220R) (general approach)
Kind of series: Detection of Ambrofix spiked into Geranium oil on OR7A17 with SEQ ID 221. In kind it is cell-based.
T5 sequence (O14581 with tags, fused parts or gaps): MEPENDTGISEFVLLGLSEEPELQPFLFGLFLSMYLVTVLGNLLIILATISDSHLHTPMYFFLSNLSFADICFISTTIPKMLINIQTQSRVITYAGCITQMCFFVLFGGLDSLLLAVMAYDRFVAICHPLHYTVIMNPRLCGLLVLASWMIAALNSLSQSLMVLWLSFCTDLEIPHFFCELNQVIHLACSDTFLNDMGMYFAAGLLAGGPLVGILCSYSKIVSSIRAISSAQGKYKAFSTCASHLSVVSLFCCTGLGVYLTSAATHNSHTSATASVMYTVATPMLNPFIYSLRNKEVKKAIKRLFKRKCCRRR
Description: These mixtures were tested with OR7A17 with a C-terminal domain of SEQ ID 221 (a DNA sequence encoding the modified receptor is included as SEQ ID NO: 611) as described in example 20.

Series [9] deals with T6, OR7A17 (Homo sapiens, UniProt O14581).
T6 construct: expressed in transfected cells; host or cells: HEK293T cells stably expressing human RTP1S (V227I) and RTP2 (L220R)
Briefly: Luciferase dose-response, wild-type vs changed C-terminus (SEQ ID NO: 86). In kind it is cell-based. The settings on record: wild-type.
Excerpt: as §1
(§3) Thus, optimal improvement of activity is not achieved by the approach of just using the parent C-terminus and mutating it towards consensus, but rather by exchanging the C-terminal sequence with the optimized sequence described herein.
T6 sequence (O14581 whole entry): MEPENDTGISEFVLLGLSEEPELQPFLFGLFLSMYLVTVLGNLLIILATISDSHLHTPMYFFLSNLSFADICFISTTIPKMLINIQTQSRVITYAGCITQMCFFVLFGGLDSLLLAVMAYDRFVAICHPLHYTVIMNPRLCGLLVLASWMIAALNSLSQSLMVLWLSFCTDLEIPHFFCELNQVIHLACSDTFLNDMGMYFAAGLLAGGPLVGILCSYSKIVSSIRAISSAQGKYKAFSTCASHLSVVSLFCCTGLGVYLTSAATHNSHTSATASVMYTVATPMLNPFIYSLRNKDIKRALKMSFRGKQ

The subject of series [10] is OR7A17. The series is described as above. In kind it is cell-based, human.
Excerpt: as §1, §3

The target in series [11] is T7, OR7A17 (Homo sapiens, UniProt O14581, D296E/I297V/R299D).
T7 construct: expressed in transfected cells; host or cells: HEK293T cells stably expressing human RTP1S (V227I) and RTP2 (L220R)
T7 sequence (O14581 with tags, fused parts or gaps D296E/I297V/R299D): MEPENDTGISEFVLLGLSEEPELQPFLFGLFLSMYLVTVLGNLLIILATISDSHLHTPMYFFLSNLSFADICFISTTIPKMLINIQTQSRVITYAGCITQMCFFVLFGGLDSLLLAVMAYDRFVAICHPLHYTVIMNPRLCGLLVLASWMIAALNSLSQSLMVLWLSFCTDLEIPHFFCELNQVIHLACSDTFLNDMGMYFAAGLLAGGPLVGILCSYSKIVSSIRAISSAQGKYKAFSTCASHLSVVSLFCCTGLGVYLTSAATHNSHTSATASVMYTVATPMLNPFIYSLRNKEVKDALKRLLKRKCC
Described as above. It is filed as cell-based.
Excerpt: as §1, §3

Series [12] concerns OR1C1. Briefly: cell-based. It is filed as cell-based, human.
Excerpt: as §1

For series [13], the target named is T8, OR1C1 (Homo sapiens, UniProt Q15619).
T8 construct: expressed in transfected cells; host or cells: HEK293T cells stably expressing human RTP1S (V227I) and RTP2 (L220R)
Briefly: cell-based. In kind it is cell-based.
Excerpt: as §1
T8 sequence (Q15619 with tags, fused parts or gaps): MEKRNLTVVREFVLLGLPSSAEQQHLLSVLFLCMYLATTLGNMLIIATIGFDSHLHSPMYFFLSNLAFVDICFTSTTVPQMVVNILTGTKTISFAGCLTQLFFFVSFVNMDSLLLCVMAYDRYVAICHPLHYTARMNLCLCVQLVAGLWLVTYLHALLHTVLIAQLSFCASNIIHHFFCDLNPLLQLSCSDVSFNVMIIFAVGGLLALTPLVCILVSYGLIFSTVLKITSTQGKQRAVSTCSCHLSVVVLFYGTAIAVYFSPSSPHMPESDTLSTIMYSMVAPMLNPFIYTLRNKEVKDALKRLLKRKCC

The target of series [14] is T9, OR1C1 (Homo sapiens, UniProt Q15619).
T9 construct: expressed in transfected cells; host or cells: HEK293T cells stably expressing human RTP1S (V227I) and RTP2 (L220R)
Briefly: cell-based. In kind it is cell-based.
Excerpt: as §1
T9 sequence (Q15619 whole entry): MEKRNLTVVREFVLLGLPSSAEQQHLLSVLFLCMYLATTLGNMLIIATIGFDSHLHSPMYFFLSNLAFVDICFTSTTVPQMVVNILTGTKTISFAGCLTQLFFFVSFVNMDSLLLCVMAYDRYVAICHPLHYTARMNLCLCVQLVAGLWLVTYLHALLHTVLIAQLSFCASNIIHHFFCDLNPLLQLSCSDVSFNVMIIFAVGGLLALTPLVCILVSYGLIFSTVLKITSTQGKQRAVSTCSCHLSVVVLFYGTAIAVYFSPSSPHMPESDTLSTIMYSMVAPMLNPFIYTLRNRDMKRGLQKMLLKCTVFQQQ
This is another data set of the same source.

[15] abbreviates: changed C-term SEQ ID NO: 86, read-out: Potency EC50.
Setting [16] is: wild-type, read-out: Potency EC50.

T4 sequence (Q8NH73 with tags, fused parts or gaps A290K): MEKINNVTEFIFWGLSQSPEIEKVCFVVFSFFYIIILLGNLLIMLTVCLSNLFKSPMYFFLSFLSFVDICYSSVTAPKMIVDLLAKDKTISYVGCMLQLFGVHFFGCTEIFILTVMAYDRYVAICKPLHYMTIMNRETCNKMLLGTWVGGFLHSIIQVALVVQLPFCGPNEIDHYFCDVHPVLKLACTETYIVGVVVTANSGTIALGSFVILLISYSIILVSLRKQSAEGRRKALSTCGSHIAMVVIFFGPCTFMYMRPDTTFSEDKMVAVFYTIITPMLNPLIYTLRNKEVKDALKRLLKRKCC

As for `CCCCCCCCCCC(=O)O` [Undecanoic acid], the figures for the “Detection threshold; concentration for 2-fold induction” value at OR56A4 [1] and at OR56A4 [2] were 3.2 µM and 43 µM, respectively. For the same molecule, the EC50 (commonly the concentration at which the effect is half-maximal) is 22 µM at OR56A4 [1] (setting [15]) and 114 µM on OR56A4 [2] (setting [16]). Further, the “activation of wild-type OR56A4” value at OR56A4 [2] (wild-type) is “activated at high concentration”. In the series with OR56A4 [3], the Fold-improvement potency is given as 5.1. The same molecule displayed a Fold-improvement threshold in the series with OR56A4 [3] of 13.5.

Turning to `O=C(OCc1ccccc1)c1ccccc1O` [Benzyl salicylate], the “Activated OR and OR variants” value in series [4] is “OR2AG2(Y28C)”.

For `c1ccc2scnc2c1` [Benzothiazole], in the series on OR4S2 [5], the Comments on efficacy is listed as 2-fold lower maximal induction for wild-type, the Fold-improvement potency is 1.3 and the Fold-improvement threshold is 2.4. Also, the “Detection threshold; concentration for 2-fold induction” value at OR4S2 [6] is recorded as 29.4 µM. Also, the EC50 on OR4S2 [6] (setting [16]) amounted to 137 µM. Further, the “Detection threshold; concentration for 2-fold induction” value on OR4S2 [7] was determined as 12.5 µM. The half-maximal effective concentration (EC50) at OR4S2 [7] (setting [15]) is 104 µM.

`CC1(C)CCCC2(C)C1CCC1(C)OCCC12` (stereo not shown) [Ambrofix]: the “detectable concentration of target ingredient against a complex matrix” value on OR7A17 [8] is at most 0.1%. In addition, on OR7A17 [9], the “Detection threshold; concentration for 2-fold induction” value stood at 1.9 µM. Further, the EC50 on OR7A17 [9] (read-out: Potency EC50) was 5.6 µM. Further, in the series with OR7A17 [10], the Comments on efficacy was 2-fold lower maximal induction for wild-type; the Fold-improvement potency worked out at 4.2; the Fold-improvement threshold was 18 and 18.4. Further, the “lowering of detection threshold vs wild-type” value with OR7A17 [10] (OR7A17 C-terminus altered towards consensus) is 3 fold. The “detection threshold for two-fold induction” value with OR7A17 [10] (OR7A17 C-terminus altered towards consensus (5 amino acids)) amounted to 0.6 µM. For the same molecule, the half-maximal effective concentration (EC50) at OR7A17 [11] (setting [15]) came to 1.3 µM. At OR7A17 [11] (changed C-term. SEQ ID NO: 86), the “Detection threshold; concentration for 2-fold induction” value was 0.1 µM.

With `C=CC(C)(O)CCC=C(C)C` (stereo not shown) [Linalool], the Fold-improvement potency in the series on OR1C1 [12] worked out at 1.9. Besides, in the series on OR1C1 [12], the Fold-improvement threshold was determined as 2.1. Also, the “Detection threshold; concentration for 2-fold induction” value at OR1C1 [13] came out at 16.2 µM; at OR1C1 [14], 34.7 µM. Moreover, the EC50 turned out to be 202 µM at OR1C1 [13] (setting [15]) and 379 µM at OR1C1 [14] (setting [16]).
